Experimental data taken from patent US8802700B2 (Vertex Pharmaceuticals Incorporated, priority 2010, dated 2014).

Molecular target: T1, ΔF508-CFTR (Homo sapiens, UniProt P13569, DEL508-508)
T1 construct: expressed in transfected cells
Assay: Membrane potential optical assay (FRET voltage-sensor dyes, VIPR), identification of potentiator compounds
Format: cell-based
Conditions: Table 3, assay not given; for Emax: read-out: % Activity (% Efficacy, relative efficacy)
Excerpt: The optical membrane potential assay utilized voltage-sensitive FRET sensors described by Gonzalez and Tsien (See Gonzalez, J. E. and R. Y. Tsien (1995) “Voltage sensing by fluorescence resonance energy transfer in single cells” Biophys J 69(4): 1272-80, and Gonzalez, J. E. and R. Y. Tsien (1997) “Improved indicators of cell membrane potential that use fluorescence resonance energy transfer” Chem Biol 4(4): 269-77) in combination with instrumentation for measuring fluorescence changes such as the Voltage/Ion Probe Reader (VIPR) (See […]. Oades, et al. (1999) “Cell-based assays and instrumentation for screening ion-channel targets” Drug Discov Today 4(9): 431-439). These voltage sensitive assays are based on the change in fluorescence resonant energy transfer (FRET) between the membrane-soluble, voltage-sensitive dye, DiSBAC2(3), and a fluorescent phospholipid, CC2-DMPE, which is attached to the outer leaflet of the plasma membrane and acts as a FRET donor. Changes in membrane potential (Vm) cause the negatively charged DiSBAC2(3) to redistribute across the plasma membrane and the amount of energy transfer from CC2-DMPE changes accordingly. The changes in fluorescence emission were monitored using VIPRTM II, which is an integrated liquid handler and fluorescent detector designed to conduct cell-based screens in 96- or 384-well microtiter plates. To identify potentiators of ΔF508-CFTR, a double-addition HTS assay format was developed. During the first addition, a Cl^--free medium with or without test compound was added to each well. […] (in mM) NaCl 160, KCl 4.5, CaCl2 2, MgCl2 1, HEPES 10, pH 7.4 with NaOH. • Chloride-free bath solution: Chloride salts in Bath Solution #1 are substituted with gluconate salts. • CC2-DMPE: Prepared as a 10 mM stock solution in DMSO and stored at -20° C. • DiSBAC2(3): Prepared as a 10 mM stock in DMSO and stored at -20° C. NIH3T3 mouse fibroblasts stably expressing ΔF508-CFTR are used for optical measurements of membrane potential. […] For all optical assays, the cells were seeded at 30,000/well in 384-well matrigel-coated plates and cultured for 2 hrs at 37° C. before culturing at 27° C. for 24 hrs. for the potentiator assay.

T1 sequence (P13569 with tags, fused parts or gaps DEL508-508): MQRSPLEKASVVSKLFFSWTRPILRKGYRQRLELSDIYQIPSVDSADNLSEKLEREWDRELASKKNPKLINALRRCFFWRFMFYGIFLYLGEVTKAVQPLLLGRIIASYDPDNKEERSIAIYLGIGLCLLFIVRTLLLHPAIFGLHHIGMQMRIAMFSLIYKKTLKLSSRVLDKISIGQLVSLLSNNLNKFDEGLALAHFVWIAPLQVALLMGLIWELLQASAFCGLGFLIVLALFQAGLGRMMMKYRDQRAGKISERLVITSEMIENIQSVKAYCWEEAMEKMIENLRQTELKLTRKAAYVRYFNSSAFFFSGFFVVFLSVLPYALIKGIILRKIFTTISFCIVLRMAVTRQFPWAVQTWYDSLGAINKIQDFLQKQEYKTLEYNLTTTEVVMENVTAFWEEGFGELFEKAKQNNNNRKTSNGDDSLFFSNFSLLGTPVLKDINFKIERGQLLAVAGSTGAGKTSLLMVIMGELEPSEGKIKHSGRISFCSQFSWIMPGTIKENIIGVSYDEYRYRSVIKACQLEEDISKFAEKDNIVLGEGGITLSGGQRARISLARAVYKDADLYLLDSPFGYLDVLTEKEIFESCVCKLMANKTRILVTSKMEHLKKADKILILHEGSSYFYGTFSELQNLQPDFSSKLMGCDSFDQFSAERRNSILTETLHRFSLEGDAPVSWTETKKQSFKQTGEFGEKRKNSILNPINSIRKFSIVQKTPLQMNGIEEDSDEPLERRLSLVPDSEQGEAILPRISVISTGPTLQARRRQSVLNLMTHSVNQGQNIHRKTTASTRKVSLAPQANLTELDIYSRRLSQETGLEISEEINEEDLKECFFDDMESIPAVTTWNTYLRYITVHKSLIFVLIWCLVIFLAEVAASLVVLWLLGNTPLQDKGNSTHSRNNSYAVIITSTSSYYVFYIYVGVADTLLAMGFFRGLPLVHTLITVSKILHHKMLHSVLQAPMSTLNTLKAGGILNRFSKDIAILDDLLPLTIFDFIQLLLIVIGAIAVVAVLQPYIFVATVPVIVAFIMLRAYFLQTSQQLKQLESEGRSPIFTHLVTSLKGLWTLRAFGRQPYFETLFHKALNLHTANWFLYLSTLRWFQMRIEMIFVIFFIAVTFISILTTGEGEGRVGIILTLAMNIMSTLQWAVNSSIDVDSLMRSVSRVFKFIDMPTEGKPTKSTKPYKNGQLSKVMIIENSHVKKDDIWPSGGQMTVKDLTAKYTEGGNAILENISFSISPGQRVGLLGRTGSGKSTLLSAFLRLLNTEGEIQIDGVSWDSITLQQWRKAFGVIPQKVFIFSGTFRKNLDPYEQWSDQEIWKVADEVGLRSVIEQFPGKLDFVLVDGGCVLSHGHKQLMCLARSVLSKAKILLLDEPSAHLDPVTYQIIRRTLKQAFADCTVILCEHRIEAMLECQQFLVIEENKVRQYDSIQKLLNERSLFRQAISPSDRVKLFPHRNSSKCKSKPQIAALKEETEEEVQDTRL

SMILES	EC50 [µM]	Emax [%]
O=C(Nc1ccc(N2CCCC2)cc1C(F)(F)F)c1c[nH]c2ccccc2c1=O [Compound 658, 4-oxo-N-[4-pyrrolidin-1-yl-2-(trifluoromethyl)phenyl]-1H-quinoline-3-carboxamide]		25 to 100
CC(C)(C)c1cc(C(C)(C)C)c(NC(=O)c2c[nH]c3cccc(C(F)(F)F)c3c2=O)cc1O [Compound 520, N-(5-hydroxy-2,4-ditert-butyl-phenyl)-4-oxo-5-(trifluoromethyl)-1H-quinoline-3-carboxamide]		25 to 100
CCOC(=O)c1cc(NC(=O)c2c[nH]c3ccccc3c2=O)cc2[nH]ccc12 [Compound 145, 6-[(4-oxo-1H-quinolin-3-yl)carbonylamino]-1H-indole-4-carboxylic acid ethyl ester]	< 10	25 to 100
CC(C)c1cc(C(F)(F)F)c(NC(=O)c2c[nH]c3ccccc3c2=O)cc1OCc1ccccc1 [Compound 570, N-[5-benzyloxy-4-isopropyl-2-(trifluoromethyl)phenyl]-4-oxo-1H-quinoline-3-carboxamide]		25 to 100
CN(C)c1ccc2[nH]cc(C(=O)Nc3cc(O)c(C(C)(C)C)cc3C(C)(C)C)c(=O)c2c1 [Compound 544, 6-dimethylamino-N-(5-hydroxy-2,4-ditert-butyl-phenyl)-4-oxo-1H-quinoline-3-carboxamide]		25 to 100
O=C(Nc1cc2[nH]ccc2cc1C(F)(F)F)c1c[nH]c2ccccc2c1=O [Compound 234, 4-oxo-N-[5-(trifluoromethyl)-1H-indol-6-yl]-1H-quinoline-3-carboxamide]		25 to 100
CCOc1cccc2c(=O)c(C(=O)Nc3cc4[nH]ccc4cc3C(C)(C)C)c[nH]c12 [Compound 641, 8-ethoxy-4-oxo-N-(5-tert-butyl-1H-indol-6-yl)-1H-quinoline-3-carboxamide]		< 25
N#Cc1cc(N2CCCC2)ccc1NC(=O)c1c[nH]c2ccccc2c1=O [Compound 622, N-(2-cyano-4-pyrrolidin-1-yl-phenyl)-4-oxo-1H-quinoline-3-carboxamide]		25 to 100
C[C@H]1CCCN1c1ccc(NC(=O)c2c[nH]c3ccc(F)cc3c2=O)c(C(F)(F)F)c1 [Compound 714, (S)-6-fluoro-N-(4-(2-methylpyrrolidin-1-yl)-2-(trifluoromethyl)phenyl)-4-oxo-1,4-dihydroquinoline-3-carboxamide]		25 to 100
O=C(Nc1ccccc1-c1ccncc1)c1c[nH]c2ccccc2c1=O [Compound 70, 4-oxo-N-[2-(4-pyridyl)phenyl]-1H-quinoline-3-carboxamide]	10 to 25	25 to 100
CCc1ccc(NC(=O)c2c[nH]c3ccccc3c2=O)cc1NC(=O)OC [Compound 129, [2-ethyl-5-[(4-oxo-1H-quinolin-3-yl)carbonylamino]phenyl]aminoformic acid methyl ester]		25 to 100
CC1(c2ccc(NC(=O)c3c[nH]c4cccc(O)c4c3=O)cc2O)CCCCC1 [Compound 606, 5-hydroxy-N-[3-hydroxy-4-(1-methylcyclohexyl)-phenyl]-4-oxo-1H-quinoline-3-carboxamide]		< 25
C[C@H]1CCCCN1c1ccc(NC(=O)c2c[nH]c3ccccc3c2=O)c(C(F)(F)F)c1 [Compound 713, (S)-N-(4-(2-methylpiperidin-1-yl)-2-(trifluoromethyl)phenyl)-4-oxo-1,4-dihydroquinoline-3-carboxamide]		> 100
COc1ccc2c(=O)c(C(=O)Nc3ccc(N4CCC[C@@H]4C)cc3C(F)(F)F)c[nH]c2c1 [Compound 642, (S)-7-methoxy-N-(4-(2-methylpyrrolidin-1-yl)-2-(trifluoromethyl)phenyl)-4-oxo-1,4-dihydroquinoline-3-carboxamide]		25 to 100
O=C(Nc1cccc2c1Cc1ccccc1-2)c1c[nH]c2ccccc2c1=O [Compound 18, N-(9H-fluoren-1-yl)-4-oxo-1H-quinoline-3-carboxamide]		25 to 100
CCCc1ccc(N(C)C)cc1NC(=O)c1c[nH]c2ccccc2c1=O [Compound 98, N-(5-dimethylamino-2-propyl-phenyl)-4-oxo-1H-quinoline-3-carboxamide]		25 to 100
O=C(Nc1cccc2c1CCCC2)c1c[nH]c2ccccc2c1=O [Compound 286, 1,4-dihydro-N-(1,2,3,4-tetrahydronaphthalen-5-yl)-4-oxoquinoline-3-carboxamide]		> 100
CC(C)(C)c1ccc(NC(=O)c2c[nH]c3ccc(F)cc3c2=O)cc1O [Compound 490, 6-fluoro-N-(3-hydroxy-4-tert-butyl-phenyl)-4-oxo-1H-quinoline-3-carboxamide]		25 to 100
Cc1cc(C(C)(C)C)c(O)cc1NC(=O)c1c[nH]c2ccc(F)cc2c1=O [Compound 683, 6-fluoro-N-(5-hydroxy-2-methyl-4-tert-butyl-phenyl)-4-oxo-1H-quinoline-3-carboxamide]		25 to 100

More lines, now with the values ahead:

EC50 [µM]	Emax [%]	SMILES
< 10	25 to 100	CCc1ccc(N)cc1NC(=O)c1c[nH]c2ccccc2c1=O [Compound 282, N-(5-amino-2-ethyl-phenyl)-4-oxo-1H-quinoline-3-carboxamide]
< 10	25 to 100	O=C(Nc1ccc(C2CCCCC2)cc1)c1c[nH]c2ccccc2c1=O [Compound 140, N-(4-cyclohexylphenyl)-4-oxo-1H-quinoline-3-carboxamide]
	25 to 100	COc1cc(NC(=O)c2c[nH]c3ccccc3c2=O)ccc1C(C)(C)C [Compound 2, N-(3-methoxy-4-tert-butyl-phenyl)-4-oxo-1H-quinoline-3-carboxamide]
	25 to 100	Nc1nc2ccc(NC(=O)c3c[nH]c4ccccc4c3=O)cc2s1 [Compound 671, N-(2-aminobenzothiazol-6-yl)-4-oxo-1H-quinoline-3-carboxamide]
	< 25	Cc1cccc(NC(=O)c2c[nH]c3ccccc3c2=O)n1 [Compound 173, N-(6-methyl-2-pyridyl)-4-oxo-1H-quinoline-3-carboxamide]
	25 to 100	O=C(Nc1ccc(F)cc1)c1c[nH]c2ccccc2c1=O [Compound 198, N-(4-fluorophenyl)-4-oxo-1H-quinoline-3-carboxamide]
	25 to 100	Cc1ccc(NC(=O)c2c[nH]c3ccccc3c2=O)cc1 [Compound 31, 4-oxo-N-(p-tolyl)-1H-quinoline-3-carboxamide]
	25 to 100	COc1ccc(C)cc1NC(=O)c1c[nH]c2ccccc2c1=O [Compound 120, N-(2-methoxy-5-methyl-phenyl)-4-oxo-1H-quinoline-3-carboxamide]
	< 25	CC(=O)c1cccc(NC(=O)c2c[nH]c3ccccc3c2=O)c1 [Compound 328, N-(3-acetylphenyl)-4-oxo-1H-quinoline-3-carboxamide]
	25 to 100	O=C(Nc1cccnc1Oc1ccccc1F)c1c[nH]c2ccccc2c1=O [Compound 435, N-[2-(2-fluorophenoxy)-3-pyridyl]-4-oxo-1H-quinoline-3-carboxamide]
	25 to 100	COc1cc(NC(=O)c2c[nH]c3ccccc3c2=O)cc(C(F)(F)F)c1 [Compound 691, N-[3-methoxy-5-(trifluoromethyl)phenyl]-4-oxo-1H-quinoline-3-carboxamide]
	< 25	COc1ccc(NC(=O)c2c[nH]c3ccccc3c2=O)cn1 [Compound 162, N-(6-methoxy-3-pyridyl)-4-oxo-1H-quinoline-3-carboxamide]
